Measured values reported in PubChem BioAssay (NCI).
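Growth conditions: 96-well plates. Treatment: test compound, 48 hours, 5 concentrations. Analysis: linear interpolation between bracketing concentrations; unreached endpoints set to highest concentration. TGI denotes the concentration required for complete inhibition of growth.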

Experiments:
Assay in all cases: NCI-60 cell line screen, 48 h
786-0 renal = tested on: 786-0 renal
HCT-15 colon = tested on: HCT-15 colon
TK-10 renal = tested on: TK-10 renal
LXFL 529 NSCLC = tested on: LXFL 529 NSCLC
UACC-257 melanoma = tested on: UACC-257 melanoma
HT29 colon = tested on: HT29 colon
MALME-3M melanoma = tested on: MALME-3M melanoma
OVCAR-5 ovarian = tested on: OVCAR-5 ovarian
DMS 273 small cell lung = tested on: DMS 273 small cell lung
OVCAR-4 ovarian = tested on: OVCAR-4 ovarian
NCI-H226 lung = tested on: NCI-H226 lung
A549 NSCLC = tested on: A549 NSCLC
UACC-62 melanoma = tested on: UACC-62 melanoma
HCT-116 colon = tested on: HCT-116 colon
U251 CNS = tested on: U251 CNS
KM20L2 colon = tested on: KM20L2 colon
DMS 114 small cell lung = tested on: DMS 114 small cell lung
SF-295 CNS = tested on: SF-295 CNS
HOP-62 NSCLC = tested on: HOP-62 NSCLC
HL-60(TB) leukemia = tested on: HL-60(TB) leukemia
SNB-75 CNS = tested on: SNB-75 CNS
COLO 205 colon = tested on: COLO 205 colon
K-562 leukemia = tested on: K-562 leukemia
SK-MEL-5 melanoma = tested on: SK-MEL-5 melanoma
SN12C renal = tested on: SN12C renal
M19-MEL melanoma = tested on: M19-MEL melanoma
SNB-78 CNS = tested on: SNB-78 CNS
M14 melanoma = tested on: M14 melanoma
SF-539 CNS = tested on: SF-539 CNS
SW-620 colon = tested on: SW-620 colon
SK-OV-3 ovarian = tested on: SK-OV-3 ovarian
CAKI-1 renal = tested on: CAKI-1 renal
OVCAR-3 ovarian = tested on: OVCAR-3 ovarian
RXF 393 renal = tested on: RXF 393 renal
SR leukemia = tested on: SR leukemia
LOX IMVI melanoma = tested on: LOX IMVI melanoma
MOLT-4 leukemia = tested on: MOLT-4 leukemia
NCI-H23 lung = tested on: NCI-H23 lung
SNB-19 CNS = tested on: SNB-19 CNS
ACHN renal = tested on: ACHN renal
HOP-92 NSCLC = tested on: HOP-92 NSCLC
UO-31 renal = tested on: UO-31 renal
SK-MEL-28 melanoma = tested on: SK-MEL-28 melanoma
RPMI-8226 leukemia = tested on: RPMI-8226 leukemia
EKVX NSCLC = tested on: EKVX NSCLC
HCC-2998 colon = tested on: HCC-2998 colon
CCRF-CEM leukemia = tested on: CCRF-CEM leukemia
KM12 colon = tested on: KM12 colon
SK-MEL-2 melanoma = tested on: SK-MEL-2 melanoma
A498 renal = tested on: A498 renal
DLD-1 colon = tested on: DLD-1 colon
IGROV1 ovarian = tested on: IGROV1 ovarian
NCI-H522 lung = tested on: NCI-H522 lung
OVCAR-8 ovarian = tested on: OVCAR-8 ovarian
NCI-H460 lung = tested on: NCI-H460 lung
SF-268 CNS = tested on: SF-268 CNS
HOP-18 NSCLC = tested on: HOP-18 NSCLC

Cc1[nH]c2ccccc2c1C1Cc2ccccc2N1C(=O)/C=C/C=C/c1ccccc1 (centres undefined)
TGI (786-0 renal): > 100 µM | TGI (HCT-15 colon): > 100 µM | TGI (TK-10 renal): > 100 µM | TGI (LXFL 529 NSCLC): > 100 µM | TGI (UACC-257 melanoma): > 100 µM | TGI (HT29 colon): > 100 µM | TGI (MALME-3M melanoma): > 100 µM | TGI (OVCAR-5 ovarian): > 100 µM | TGI (DMS 273 small cell lung): > 100 µM | TGI (OVCAR-4 ovarian): > 100 µM | TGI (NCI-H226 lung): > 100 µM | TGI (A549 NSCLC): > 100 µM | TGI (UACC-62 melanoma): > 100 µM | TGI (HCT-116 colon): > 100 µM | TGI (U251 CNS): > 100 µM | TGI (KM20L2 colon): > 100 µM | TGI (DMS 114 small cell lung): > 100 µM | TGI (SF-295 CNS): > 100 µM | TGI (HOP-62 NSCLC): > 100 µM | TGI (HL-60(TB) leukemia): > 100 µM | TGI (SNB-75 CNS): > 100 µM | TGI (COLO 205 colon): > 100 µM | TGI (K-562 leukemia): > 100 µM | TGI (SK-MEL-5 melanoma): > 100 µM | TGI (SN12C renal): > 100 µM | TGI (M19-MEL melanoma): > 100 µM | TGI (SNB-78 CNS): > 100 µM | TGI (M14 melanoma): > 100 µM | TGI (SF-539 CNS): > 100 µM | TGI (SW-620 colon): > 100 µM | TGI (SK-OV-3 ovarian): > 100 µM | TGI (CAKI-1 renal): > 100 µM | TGI (OVCAR-3 ovarian): > 100 µM | TGI (RXF 393 renal): > 100 µM | TGI (SR leukemia): > 100 µM | TGI (LOX IMVI melanoma): > 100 µM | TGI (MOLT-4 leukemia): > 100 µM | TGI (NCI-H23 lung): > 100 µM | TGI (SNB-19 CNS): > 100 µM | TGI (ACHN renal): > 100 µM | TGI (HOP-92 NSCLC): > 100 µM | TGI (UO-31 renal): > 100 µM | TGI (SK-MEL-28 melanoma): > 100 µM | TGI (RPMI-8226 leukemia): > 100 µM | TGI (EKVX NSCLC): > 100 µM | TGI (HCC-2998 colon): > 100 µM | TGI (CCRF-CEM leukemia): > 100 µM | TGI (KM12 colon): > 100 µM | TGI (SK-MEL-2 melanoma): > 100 µM | TGI (A498 renal): > 100 µM | TGI (DLD-1 colon): > 100 µM | TGI (IGROV1 ovarian): > 100 µM | TGI (NCI-H522 lung): > 100 µM | TGI (OVCAR-8 ovarian): > 100 µM | TGI (NCI-H460 lung): > 100 µM

Cc1cc(NS(=O)(=O)c2ccc(N=Nc3cc(N=Nc4ccc(S(=O)(=O)Nc5cc(C)nc(C)n5)cc4)c4c(NC(=O)C(Cl)Cl)cccc4c3OC(=O)C(Cl)Cl)cc2)nc(C)n1 (tested in a mixture with another compound)
TGI (786-0 renal): 35.9 µM | TGI (HCT-15 colon): 31.7 µM | TGI (TK-10 renal): 88.1 µM | TGI (UACC-257 melanoma): 70.2 µM | TGI (HT29 colon): 46 µM | TGI (MALME-3M melanoma): 40.8 µM | TGI (OVCAR-5 ovarian): 30.6 µM | TGI (DMS 273 small cell lung): 83.9 µM | TGI (OVCAR-4 ovarian): 43.7 µM | TGI (NCI-H226 lung): 44.9 µM | TGI (A549 NSCLC): > 100 µM | TGI (UACC-62 melanoma): 51.4 µM | TGI (HCT-116 colon): > 100 µM | TGI (U251 CNS): 32.8 µM | TGI (KM20L2 colon): 60.8 µM | TGI (DMS 114 small cell lung): > 100 µM | TGI (SF-295 CNS): 77.6 µM | TGI (HOP-62 NSCLC): 78.8 µM | TGI (HL-60(TB) leukemia): 52.4 µM | TGI (SNB-75 CNS): 76.9 µM | TGI (COLO 205 colon): 74.9 µM | TGI (K-562 leukemia): > 100 µM | TGI (SK-MEL-5 melanoma): 10.5 µM | TGI (SN12C renal): 37.8 µM | TGI (M19-MEL melanoma): > 100 µM | TGI (SNB-78 CNS): > 100 µM | TGI (M14 melanoma): 70.2 µM | TGI (SF-539 CNS): 42.8 µM | TGI (SW-620 colon): 40.4 µM | TGI (SK-OV-3 ovarian): > 100 µM | TGI (CAKI-1 renal): 78.6 µM | TGI (OVCAR-3 ovarian): 33 µM | TGI (RXF 393 renal): 38.7 µM | TGI (SR leukemia): 94.8 µM | TGI (LOX IMVI melanoma): 34.3 µM | TGI (MOLT-4 leukemia): > 100 µM | TGI (NCI-H23 lung): 78.3 µM | TGI (SNB-19 CNS): 33.6 µM | TGI (ACHN renal): 56.7 µM | TGI (HOP-92 NSCLC): 59.2 µM | TGI (UO-31 renal): 37.4 µM | TGI (SK-MEL-28 melanoma): 52.2 µM | TGI (SF-268 CNS): 98.3 µM | TGI (EKVX NSCLC): 53.5 µM | TGI (HCC-2998 colon): 35.8 µM | TGI (HOP-18 NSCLC): 34.1 µM | TGI (KM12 colon): 31.6 µM | TGI (SK-MEL-2 melanoma): 81.1 µM | TGI (A498 renal): 71.1 µM | TGI (DLD-1 colon): 33.4 µM | TGI (IGROV1 ovarian): 53.2 µM | TGI (NCI-H522 lung): 38.5 µM | TGI (OVCAR-8 ovarian): > 100 µM | TGI (NCI-H460 lung): > 100 µM
